{"source": "patent US20160209428A1", "about": "“DIAGNOSTIC AND PREDICTIVE METABOLITE PATTERNS FOR DISORDERS AFFECTING THE BRAIN AND NERVOUS SYSTEM” (THE REGENTS OF THE UNIVERSITY OF CALIFORNIA, priority 2013, published 2016)", "key": {"[1]": {"test_system": "cerebral synaptosomal protein", "assay": "Western blot analysis of cerebral synaptosomal proteins, Fragile X model", "type": "in vivo, mouse", "conditions": "Fmr1 KO mice", "description": "Twenty μg of cerebral synaptosomal protein was loaded in SDS-polyacrylamide gels (Bis-Tris Gels) and transferred to PVDF membranes. The blots were first stained with Ponceau S, scanned, and the transfer efficiency was quantified by densitometry before blocking with 3% skim milk, and probing with primary and secondary antibodies for signal development by enhanced chemiluminescence (ECL)."}, "[2]": {"test_system": "maternal immune activation (MIA) mouse model", "assay": "Rotarod (latency to fall), MIA model", "type": "in vivo", "conditions": "MIA 6-month-old adults, single injection of suramin", "description": "(N=8-13, 6.75-month-old males per group).\nPrevious studies have shown age-dependent, postnatal loss of cerebellar Purkinje cells in the MIA model. This can reach up to 60% of Purkinje cells lost by 4 months (16 weeks) of age. Motor coordination measured by rotarod performance is deficient in the MIA model and is critically dependent on the integrity of Purkinje cell circuits in the cerebellum. Since Purkinje cells are known to be lost in MIA animals by 4 months (16 weeks) of age, it was hypothesized that APT given later in life would have no effect. The results confirmed this. […] Although cerebellar Purkinje cell density was not quantified in this study, our results are consistent with the notion that once Purkinje cells are lost, their function cannot be restored by APT in adult animals."}, "[3]": {"conditions": "cerebral synaptosomes, suramin vs saline"}, "[4]": {"conditions": "cerebral synaptosomes, listed as suramin"}}, "data": [{"compound": "Cc1ccc(C(=O)Nc2ccc(S(=O)(=O)O)c3cc(S(=O)(=O)O)cc(S(=O)(=O)O)c23)cc1NC(=O)c1cccc(NC(=O)Nc2cccc(C(=O)Nc3cc(C(=O)Nc4ccc(S(=O)(=O)O)c5cc(S(=O)(=O)O)cc(S(=O)(=O)O)c45)ccc3C)c2)c1", "note": "[Suramin, suramin]", "values": [{"measurement": "proteins interrogated in cerebral synaptosomes that were changed", "setting": "[1]; suramin vs saline", "value": "17 of 54"}, {"measurement": "Response to Suramin KO-Sur/KO-Sal: 7-dehydrocholesterol reductase/7DHCR", "setting": "[1]; cerebral synaptosomes", "value": "Up"}, {"measurement": "Response to Suramin KO-Sur/KO-Sal: APC", "setting": "[1]; cerebral synaptosomes", "value": "Down"}, {"measurement": "Response to Suramin KO-Sur/KO-Sal: Acetyl-CoA acetyltransferase 2/ACAT2", "setting": "[1]; cerebral synaptosomes", "value": "None"}, {"measurement": "Response to Suramin KO-Sur/KO-Sal: Akt", "setting": "[1]; cerebral synaptosomes", "value": "decreased and Down"}, {"measurement": "Response to Suramin KO-Sur/KO-Sal: Amyloid β (Aβ) precursor protein/APP", "setting": "[1]; cerebral synaptosomes", "value": "Down"}, {"measurement": "Response to Suramin KO-Sur/KO-Sal: C1qA", "setting": "[1]; cerebral synaptosomes", "value": "Down"}, {"measurement": "Response to Suramin KO-Sur/KO-Sal: CB1", "setting": "[1]; cerebral synaptosomes", "value": "Down"}, {"measurement": "Response to Suramin KO-Sur/KO-Sal: CB2", "setting": "[1]; cerebral synaptosomes", "value": "unchanged and None"}, {"measurement": "Response to Suramin KO-Sur/KO-Sal: CPY27A1", "setting": "[1]; cerebral synaptosomes", "value": "None"}, {"measurement": "Response to Suramin KO-Sur/KO-Sal: Dopamine Receptor D4/D4R", "setting": "[1]; cerebral synaptosomes", "value": "None"}, {"measurement": "Response to Suramin KO-Sur/KO-Sal: ETFQO/ETFDH", "setting": "[1]; cerebral synaptosomes", "value": "None"}, {"measurement": "Response to Suramin KO-Sur/KO-Sal: Fragile X mental retardation protein/FMRP", "setting": "[1]; cerebral synaptosomes", "value": "None"}, {"measurement": "Response to Suramin KO-Sur/KO-Sal: GABA A Receptor beta 3/GABA-β3", "setting": "[1]; cerebral synaptosomes", "value": "None"}, {"measurement": "Response to Suramin KO-Sur/KO-Sal: GluR1", "setting": "[1]; cerebral synaptosomes", "value": "Down"}, {"measurement": "Response to Suramin KO-Sur/KO-Sal: HMGCoA Reductase/HMOCoAR", "setting": "[1]; cerebral synaptosomes", "value": "None"}, {"measurement": "Response to Suramin KO-Sur/KO-Sal: IP3R I", "setting": "[1]; cerebral synaptosomes", "value": "Up"}, {"measurement": "Response to Suramin KO-Sur/KO-Sal: Indoleamine 2,3-dioxygenase 1/IDO-1", "setting": "[1]; cerebral synaptosomes", "value": "None"}, {"measurement": "Response to Suramin KO-Sur/KO-Sal: Metabotropic glutamate receptor 5/mGluR5", "setting": "[1]; cerebral synaptosomes", "value": "no effect and None"}, {"measurement": "Response to Suramin KO-Sur/KO-Sal: Methionine Sulfoxide Reductase A/MSRA", "setting": "[1]; cerebral synaptosomes", "value": "None"}, {"measurement": "Response to Suramin KO-Sur/KO-Sal: Nicotinic Acetylcholine Receptor alpha 7/nAchR7", "setting": "[1]; cerebral synaptosomes", "value": "None"}, {"measurement": "Response to Suramin KO-Sur/KO-Sal: Nitro Tyrosine", "setting": "[1]; cerebral synaptosomes", "value": "None"}, {"measurement": "Response to Suramin KO-Sur/KO-Sal: P2X1", "setting": "[1]; cerebral synaptosomes", "value": "None"}, {"measurement": "Response to Suramin KO-Sur/KO-Sal: P2X2", "setting": "[1]; cerebral synaptosomes", "value": "None"}, {"measurement": "Response to Suramin KO-Sur/KO-Sal: P2X3R", "setting": "[1]; cerebral synaptosomes", "value": "Down"}, {"measurement": "Response to Suramin KO-Sur/KO-Sal: P2X4", "setting": "[1]; cerebral synaptosomes", "value": "None"}, {"measurement": "Response to Suramin KO-Sur/KO-Sal: P2X5", "setting": "[1]; cerebral synaptosomes", "value": "None"}, {"measurement": "Response to Suramin KO-Sur/KO-Sal: P2X6", "setting": "[1]; cerebral synaptosomes", "value": "None"}, {"measurement": "Response to Suramin KO-Sur/KO-Sal: P2X7", "setting": "[1]; cerebral synaptosomes", "value": "None"}, {"measurement": "Response to Suramin KO-Sur/KO-Sal: P2Y1R", "setting": "[1]; cerebral synaptosomes", "value": "Up"}, {"measurement": "Response to Suramin KO-Sur/KO-Sal: P2Y2", "setting": "[1]; cerebral synaptosomes", "value": "None"}, {"measurement": "Response to Suramin KO-Sur/KO-Sal: P2Y4", "setting": "[1]; cerebral synaptosomes", "value": "None"}, {"measurement": "Response to Suramin KO-Sur/KO-Sal: PGC1a", "setting": "[1]; cerebral synaptosomes", "value": "None"}, {"measurement": "Response to Suramin KO-Sur/KO-Sal: PI3K", "setting": "[1]; cerebral synaptosomes", "value": "decreased and Down"}, {"measurement": "Response to Suramin KO-Sur/KO-Sal: PKC", "setting": "[1]; cerebral synaptosomes", "value": "None"}, {"measurement": "Response to Suramin KO-Sur/KO-Sal: PPAR beta/delta", "setting": "[1]; cerebral synaptosomes", "value": "Up"}, {"measurement": "Response to Suramin KO-Sur/KO-Sal: PPARa", "setting": "[1]; cerebral synaptosomes", "value": "no effect and None"}, {"measurement": "Response to Suramin KO-Sur/KO-Sal: Postsynaptic Density protein 95/PSD95", "setting": "[1]; cerebral synaptosomes", "value": "None"}, {"measurement": "Response to Suramin KO-Sur/KO-Sal: Steroidogenic acute regulatory protein/StAR", "setting": "[1]; cerebral synaptosomes", "value": "Up"}, {"measurement": "Response to Suramin KO-Sur/KO-Sal: TAR DNA-binding protein 43/TDP43", "setting": "[1]; cerebral synaptosomes", "value": "Down"}, {"measurement": "Response to Suramin KO-Sur/KO-Sal: TGFβ Receptor I", "setting": "[1]; cerebral synaptosomes", "value": "None"}, {"measurement": "Response to Suramin KO-Sur/KO-Sal: mTOR", "setting": "[1]; cerebral synaptosomes", "value": "not observed and None"}, {"measurement": "Response to Suramin KO-Sur/KO-Sal: nAchR beta2", "setting": "[1]; cerebral synaptosomes", "value": "None"}, {"measurement": "Response to Suramin KO-Sur/KO-Sal: p-eIF2α(Ser51)", "setting": "[1]; cerebral synaptosomes", "value": "None"}, {"measurement": "Response to Suramin KO-Sur/KO-Sal: p-mTOR(ser2448)", "setting": "[1]; cerebral synaptosomes", "value": "not observed and None"}, {"measurement": "Response to Suramin KO-Sur/KO-Sal: pAkt(Ser473)", "setting": "[1]; cerebral synaptosomes", "value": "None"}, {"measurement": "Response to Suramin KO-Sur/KO-Sal: pAkt(Thr308)", "setting": "[1]; cerebral synaptosomes", "value": "None"}, {"measurement": "Response to Suramin KO-Sur/KO-Sal: pCAMKII(Thr286)", "setting": "[1]; cerebral synaptosomes", "value": "None"}, {"measurement": "Response to Suramin KO-Sur/KO-Sal: pERK1/2(Thr202/Tyr204)", "setting": "[1]; cerebral synaptosomes", "value": "None"}, {"measurement": "Response to Suramin KO-Sur/KO-Sal: pGSK3β (Ser9)", "setting": "[1]; cerebral synaptosomes", "value": "Up"}, {"measurement": "Response to Suramin KO-Sur/KO-Sal: pPERK(Thr980)", "setting": "[1]; cerebral synaptosomes", "value": "None"}, {"measurement": "Response to Suramin KO-Sur/KO-Sal: pPKC(Ser660)", "setting": "[1]; cerebral synaptosomes", "value": "None"}, {"measurement": "Response to Suramin KO-Sur/KO-Sal: pS6K(Thr389)", "setting": "[1]; cerebral synaptosomes", "value": "Up"}, {"measurement": "Response to Suramin KO-Sur/KO-Sal: pSTAT3(ser727)", "setting": "[1]; cerebral synaptosomes", "value": "None"}, {"measurement": "decrease of CB1 receptor expression", "setting": "[1]; [3]", "value": 16, "unit": "%"}, {"measurement": "decrease of P2X3 receptor expression", "setting": "[1]; [3]", "value": 18, "unit": "%"}, {"measurement": "decrease of ionotropic GluR1 expression", "setting": "[1]; [3]", "value": 15, "unit": "%"}, {"measurement": "decrease of synaptosomal APP levels", "setting": "[1]; [3]", "value": 23, "unit": "%"}, {"measurement": "decrease of synaptosomal C1qA", "setting": "[1]; [3]", "value": 24, "unit": "%"}, {"measurement": "decrease of synaptosomal TDP43", "setting": "[1]; [3]", "value": 27, "unit": "%"}, {"measurement": "decrease of total APC expression", "setting": "[1]; [3]", "value": 29, "unit": "%"}, {"measurement": "increase in IP3R1 expression", "setting": "[1]; [3]", "value": 101, "unit": "%"}, {"measurement": "increase of 7-dehydrocholesterol reductase (7DHCR)", "setting": "[1]; [3]", "value": 24, "unit": "%"}, {"measurement": "increase of P2Y1 receptor expression", "setting": "[1]; [3]", "value": 31, "unit": "%"}, {"measurement": "increase of inhibitory phosphorylation of S6 kinase (S6K)", "setting": "[1]; [3]", "value": 47, "unit": "%"}, {"measurement": "increase of inhibitory phosphorylation of glycogen synthase kinase 3β (GSK3β)", "setting": "[1]; [3]", "value": 75, "unit": "%"}, {"measurement": "increase of steroidogenic acute regulatory (StAR) protein", "setting": "[1]; [3]", "value": 165, "unit": "%"}, {"measurement": "Response to Suramin KO-Sur/KO-Sal: Nicotinic Acetylcholine Receptor alpha 7/nAchR7", "setting": "[1]; [4]", "value": "No effect"}, {"measurement": "Response to Suramin KO-Sur/KO-Sal: P2X7", "setting": "[1]; [4]", "value": "No effect"}, {"measurement": "Response to Suramin KO-Sur/KO-Sal: P2Y2", "setting": "[1]; [4]", "value": "No effect"}, {"measurement": "Response to Suramin KO-Sur/KO-Sal: pCAMKII(Thr286)", "setting": "[1]; [4]", "value": "No effect"}, {"measurement": "Response to Suramin KO-Sur/KO-Sal: pERK1/2(Thr202/Tyr204)", "setting": "[1]; [4]", "value": "No effect"}, {"measurement": "increase of PPARβ expression", "setting": "[1]; purified brain synaptosomes, suramin vs saline", "value": 34, "unit": "%"}, {"measurement": "motor coordination (rotarod)", "setting": "[2]", "value": "failed to restore normal motor coordination"}]}]}
